Assay results as given in patent US10245270B2, “Salt of 3-[(3-{[4-(4-morpholinylmethyl)-1H-pyrrol-2-yl]methylene}-2-oxo-2,3-dihydro-1H-indol-5-yl)methyl]-1,3-thiazolidine-2,4-dione, its preparation, and formulations containing it” (LES LABORATOIRES SERVIER, priority 2013, dated 2019).
Read-outs that look alike come from different tables or passages of the source. Blank lines part the entries; values can stand above or below the molecule they belong to.

Legend:
[1] = Purity and stability under denaturing conditions (HPLC, X-ray diffractogram, DSC); type: physicochemical
Procedure: The compound of formula (II) according to the invention has excellent stability over time even under denaturing conditions: at 25° C./60% relative humidity, at 25° C./90% relative humidity, at 30° C./65% relative humidity, at 40° C./75% relative humidity, or at 50° C., the compound of formula (II) is unchanged after 6 months.
EXAMPLE 2: PURITY AND STABILITY OF 3[(3-{[4-(4-MORPHOLINYLMETHYL)-1H-PYRROL-2-YL]METHYLENE}-2-OXO-2,3-DIHYDRO-1H-INDOL-5-YL)METHYL]-1,3-THIAZOLIDINE-2,4-DIONE METHANESULPHONATE, Z ISOMER, UNDER DENATURING CONDITIONS

cancer cells = settings: cited from earlier work
[2] = Constant surface area (intrinsic) dissolution kinetics at pH 2; type: physicochemical; settings: for dissolution kinetics: pH 2 (0.01N HCl), ambient temperature, pellets of 0.075 cm^2, 100 rpm
Procedure: The constant surface area dissolution kinetics (or intrinsic dissolution kinetics) of the product of Example 1 were determined at ambient temperature at pH 2 (10 mL of 0.01N HCl) using a μDiss dissolution apparatus and pellets of 0.075 cm^2, prepared by compression at 90 bars, for 2 minutes at a stirring speed of 100 rpm.
The product of Example 1 dissolves with kinetics of 23 μg·s^−1·cm^−2+/−11%. By way of comparison, the dissolution kinetics of the corresponding hydrochloride are 1.6 μg·s^−1·cm^−2. The methanesulphonate therefore dissolves about 14 times faster than the corresponding hydrochloride.

[3] = Solubility in water, 24 hours stirring at ambient temperature, HPLC analysis; type: physicochemical; settings: for solubility at 24 h: thermodynamic from solid
Procedure: A solution containing 140 mg of the compound obtained in Example 1 in 7 ml of water is stirred for 24 hours at ambient temperature. After filtration using an Acrodisc GJHP 0.45[…] μm, the solution is analysed by HPLC.

[4] = After 6 months, 25° C./60% relative humidity
[5] = After 6 months, 25° C./90% relative humidity
[6] = After 6 months, 30° C./65% relative humidity
[7] = After 6 months, 40° C./75% relative humidity

Compound: CS(=O)(=O)O.O=C1Nc2ccc(CN3C(=O)CSC3=O)cc2C1=Cc1cc(CN2CCOCC2)c[nH]1 [compound of formula (II), 3-[(3-{[4-(4-morpholinylmethyl)-1H-pyrrol-2-yl]methylene}-2-oxo-2,3-dihydro-1H-indol-5-yl)methyl]-1,3-thiazolidine-2,4-dione methanesulphonate]
stability over time under denaturing conditions ([1]; after 6 months at 25° C./60% RH, 25° C./90% RH, 30° C./65% RH, 40° C./75% RH or 50° C.): unchanged

Compound: O=C1Nc2ccc(CN3C(=O)CSC3=O)cc2C1=Cc1cc(CN2CCOCC2)c[nH]1 [3-[(3-{[4-(4-morpholinylmethyl)-1H-pyrrol-2-yl]methylene}-2-oxo-2,3-dihydro-1H-indol-5-yl)methyl]-1,3-thiazolidine-2,4-dione]
ability to inhibit the migration of cancer cells (cancer cells): has the ability to inhibit the migration of cancer cells

Compound: O=C1Nc2ccc(CN3C(=O)CSC3=O)cc2C1=Cc1cc(CN2CCOCC2)c[nH]1 [Example 1, 3-[(3-{[4-(4-MORPHOLINYLMETHYL)-1H-PYRROL-2-YL]METHYLENE}-2-OXO-2,3-DIHYDRO-1H-INDOL-5-YL)METHYL]-1,3-THIAZOLIDINE-2,4-DIONE METHANESULPHONATE, Z ISOMER]
dissolution kinetics [2]: 23 μg·s^−1·cm^−2 | dissolution rate relative to the corresponding hydrochloride ([2]; pH 2, ambient temperature): about 14 times faster | solubility at 24 h ([3]; as the salt, read-out: solubility): 14.7 mg/mL | solubility at 24 h ([3]; base equivalent, read-out: solubility in terms of the base equivalent): 12.1 mg/mL | DSC (thermogram) [1, 4]: unchanged | HPLC (% Example 1) [1, 4]: 99.8% | XR (diffractogram) [1, 4]: unchanged | DSC (thermogram) [1, 5]: unchanged | HPLC (% Example 1) [1, 5]: 99.8% | XR (diffractogram) [1, 5]: unchanged | DSC (thermogram) [1, 6]: unchanged | HPLC (% Example 1) [1, 6]: 99.8% | XR (diffractogram) [1, 6]: unchanged | DSC (thermogram) [1, 7]: unchanged | HPLC (% Example 1) [1, 7]: 99.8% | XR (diffractogram) [1, 7]: unchanged | DSC (thermogram) ([1]; After 6 months, 50° C.): unchanged | HPLC (% Example 1) ([1]; After 6 months, 50° C.): 99.8% | XR (diffractogram) ([1]; After 6 months, 50° C.): unchanged | HPLC (% Example 1) ([1]; t = 0): 99.8%

dissolution kinetics [2]: 1.6 μg·s^−1·cm^−2 | solubility ([3]; as the salt): 4.3 mg/mL | solubility in terms of the base equivalent ([3]; base equivalent): 4 mg/mL
Compound: Cl.O=C1Nc2ccc(CN3C(=O)CSC3=O)cc2/C1=C/c1cc(CN2CCOCC2)c[nH]1 (single isomer, unassigned) [hydrochloride of 3-[(3-([4-{(4-morpholinylmethyl)-1H-pyrrol-2-yl]methylene}-2-oxo-2,3-dihydro-1H-indol-5-yl)methyl]-1,3-thiazolidine-2,4-dione, Z isomer, reference compound]
